Results published in patent publication US11746111B2, “Siderophore conjugated pyrazolidinones, and analogues thereof” (YALE UNIVERSITY, priority 2018, dated 2023).
Values after ≈ are worked out from the molar mass of the structure shown. Where two headings read alike, the source gives them in different places.

Tests used:
E. coli = test: MIC versus E. coli strains incl. Class B metallo beta lactamases (Table 2); type: cell-based; conditions: Escherichia coli
Text: (§1) Tables 2 and 3 show MIC values of compound 26 (YU253434) and 42 YU253911 versus E. coli and P. Aeruginosa strains containing Class B metallo beta lactamases VIM and NDM compared with Meropenem as a standard.

[1] = biological target: Pseudomonas aeruginosa penicillin binding protein 3 (PBP3) (Pseudomonas aeruginosa, UniProt G3XD46); test: Inhibition of penicillin binding protein 3 (Bocillin based assay); conditions: Pseudomonas aeruginosa PBP3 (FIG. 5)
Text: FIG. 5 is a graph showing compound 26 inhibiting Pseudomonas aeruginosa penicillin binding protein 3 (PBP3).
To assess the affinity of the inhibitors for PBP3 and PBP1a and PBP1b, a Bocillin based assay using PA01 membranes as well as purified proteins is used. Delineation of remarkably active compounds occurs by establishing the MIC90 against Ec, Pa, Ab and Kp as well as static time kill measurement. When siderophore linked pyrazolidinone agents show remarkable activity (i.e. activity equal to or greater than current clinical agents Meropenem or Aztreonam) in these latter secondary assays, they are tested in vivo in a mouse septicemia efficacy model after protein binding measurement and will show potent in vivo activity.

[2] = system: E. coli clinical isolates; test: Microdilution broth MIC, E. coli clinical isolates (Table 1); type: cell-based; conditions: Escherichia coli, read-out: MIC
Experimental: (§2) Microdilution Broth Minimum Inhibitory Concentrations (MICs)
(§3) MICs were performed in triplicate in cation adjusted Mueller-Hinton (MH) broth 30 according to CLSI guidelines. Firstly, overnight cultures of E. coli and K. pneumoniae clinical isolates were inoculated into 5 ml MH broth to OD600=0.1 and grown to OD600=0.224 (approximately 1-2×10^8 CFU/ml). These cultures were diluted (3 μl+4997 μl MH) and 100 μl inoculated into each well of a 96-well plate containing 100 μl of serial dilutions of compound 26 (YU253434), ampicillin, ceftazidime, or imipenem. The plates were placed in a 37° C. incubator for 18-20 hours and wells checked for growth.

Pseudomonas aeruginosa = test: MIC versus Pseudomonas aeruginosa strains incl. Class B metallo beta lactamases (Table 3); type: cell-based
Text: as §1

[3] = system: K. pneumoniae clinical isolates; test: Microdilution broth MIC, K. pneumoniae clinical isolates (Table 1); type: cell-based; conditions: Klebsiella pneumoniae
Experimental: as §2, §3

Pseudomonas aeruginosa penicillin binding protein 3 (PBP3), sequence (G3XD46 whole entry): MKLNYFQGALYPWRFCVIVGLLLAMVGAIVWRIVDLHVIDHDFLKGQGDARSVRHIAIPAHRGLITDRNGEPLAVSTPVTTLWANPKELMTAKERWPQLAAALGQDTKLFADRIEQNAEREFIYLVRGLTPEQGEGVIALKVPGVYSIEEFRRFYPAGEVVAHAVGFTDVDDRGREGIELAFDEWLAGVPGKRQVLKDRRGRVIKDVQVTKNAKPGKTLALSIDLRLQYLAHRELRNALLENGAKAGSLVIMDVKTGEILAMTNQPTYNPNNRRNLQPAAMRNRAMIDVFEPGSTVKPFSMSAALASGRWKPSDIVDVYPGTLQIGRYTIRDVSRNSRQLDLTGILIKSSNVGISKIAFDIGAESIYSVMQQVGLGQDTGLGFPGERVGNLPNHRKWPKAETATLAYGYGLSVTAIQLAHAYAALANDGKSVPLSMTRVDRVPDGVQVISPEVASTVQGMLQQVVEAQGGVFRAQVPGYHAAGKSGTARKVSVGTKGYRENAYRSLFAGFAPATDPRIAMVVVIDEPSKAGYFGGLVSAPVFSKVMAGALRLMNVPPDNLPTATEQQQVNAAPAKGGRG

Structure (SMILES): CC(C)(O/N=C(\C(=O)N[C@H]1CN2CC(C(=O)NCCN3C(=O)c4cc(O)c(O)cc4C3=O)=C(C(=O)O)N2C1=O)c1csc(N)n1)C(=O)O [Compound 26, (S,Z)-6-(2-(2-aminothiazol-4-yl)-2-(((2-carboxypropan-2-yl)oxy)imino)acetamido)-2-((2-(5,6-dihydroxy-1,3-dioxoisoindolin-2-yl)ethyl)carbamoyl)-5-oxo-6,7-dihydro-1H,5H-pyrazolo[1,2-a]pyrazole-3-carboxylic acid]
- MIC (E. coli; ATCC25822, E. coli isolate ATCC 25822, CLSI costrol): 2 mg/L (≈ 2.91 µM)
- MIC (E. coli; E. coli isolate AA-118, NDM): 4 mg/L (≈ 5.83 µM)
- MIC (E. coli; E. coli isolate AA-119, NDM): 4 mg/L (≈ 5.83 µM)
- MIC (E. coli; E. coli isolate AA-128, NDM): 4 mg/L (≈ 5.83 µM)
- MIC (E. coli; E. coli isolate AK-114, KPC-3, TEM-18): 0.5 mg/L (≈ 0.728 µM)
- MIC (E. coli; E. coli isolate AR-1, KPC-3): 1 mg/L (≈ 1.46 µM)
- MIC (E. coli; E. coli isolate AR-11, CTX-M-15, OxA-1): 0.5 mg/L (≈ 0.728 µM)
- MIC (E. coli; E. coli isolate AR-137, NDM-6): 4 mg/L (≈ 5.83 µM)
- MIC (E. coli; E. coli isolate AR-145, NDM): > 64 mg/L
- MIC (E. coli; E. coli isolate J4244, MN): 2 mg/L (≈ 2.91 µM)
- MIC (E. coli; E. coli isolate J4245, Michigan): 0.25 mg/L (≈ 0.364 µM)
- IC50 [1]: 2.5 ± 0.5 µM
- MIC ([2]; BAA202, E. coli BAA-202, SHV-1): 4 mg/L (≈ 5.83 µM)
- MIC ([2]; E. coli 35218, TEM-1): 0.125 mg/L (≈ 0.182 µM)
- MIC ([2]; E. coli LC4, TEM, SHV-12): 16 mg/L (≈ 23.3 µM)
- MIC ([2]; E. coli LC12, CTX-M-1 grp(15)): > 128 mg/L
- MIC ([2]; E. coli LC33, CTX-M-9 group): 1 mg/L (≈ 1.46 µM)
- MIC ([2]; E. coli LC38, CTX-M-1 grp(15), PB AmpC (ACT/MIR)): 0.25 mg/L (≈ 0.364 µM)
- MIC ([2]; E. coli LC41, TEM (238S), PB AmpC (ACT/MIR), CTX-M-1 grp(15)): 16 mg/L (≈ 23.3 µM)
- MIC ([2]; E. coli LC77, TEM, KPC): 0.5 mg/L (≈ 0.728 µM)
- MIC ([2]; E. coli LC81, SHV (238S + 240K)): 16 mg/L
- MIC ([2]; E. coli LC98, CMY (group II)): 4 mg/L (≈ 5.83 µM)
- MIC ([2]; E. coli LC109, CTX-M-9 group, CMY (group II)): 0.25 mg/L (≈ 0.364 µM)
- MIC ([2]; E. coli LC111, TEM (164S)): 1 mg/L (≈ 1.46 µM)
- MIC ([2]; E. coli LC136, SHV (WT + 238S)): 0.125 mg/L
- MIC ([2]; E. coli Rush24, CMY (group II)): 8 mg/L (≈ 11.7 µM)
- MIC (Pseudomonas aeruginosa; ATCC27853, P. aeruginosa isolate ATCC 27853, CLSI control): 0.25 mg/L (≈ 0.364 µM)
- MIC (Pseudomonas aeruginosa; P. aeruginosa isolate AR-229, OXA-50): 0.25 mg/L (≈ 0.364 µM)
- MIC (Pseudomonas aeruginosa; P. aeruginosa isolate AR-230, VIM-2): 1 mg/L (≈ 1.46 µM)
- MIC (Pseudomonas aeruginosa; P. aeruginosa isolate AR-231, KPC-5): 0.5 mg/L (≈ 0.728 µM)
- MIC (Pseudomonas aeruginosa; P. aeruginosa isolate AR-232, OXA-50): 0.5 mg/L (≈ 0.728 µM)
- MIC (Pseudomonas aeruginosa; P. aeruginosa isolate AR-245, VIM): 0.5 mg/L (≈ 0.728 µM)
- MIC (Pseudomonas aeruginosa; P. aeruginosa isolate AR-249, VIM): 1 mg/L (≈ 1.46 µM)
- MIC (Pseudomonas aeruginosa; P. aeruginosa isolate AR-252): 1 mg/L (≈ 1.46 µM)
- MIC (Pseudomonas aeruginosa; P. aeruginosa isolate AR-254, VIM): 2 mg/L (≈ 2.91 µM)
- MIC (Pseudomonas aeruginosa; P. aeruginosa isolate AR-270, OXA-50): 0.25 mg/L (≈ 0.364 µM)
- MIC (Pseudomonas aeruginosa; P. aeruginosa isolate J4242, UNC-D): 0.5 mg/L (≈ 0.728 µM)
- MIC ([3]; K. pneumoniae 7000063, β-lactamase SHV-18, read-out: MIC): 2 mg/L (≈ 2.91 µM)
- MIC ([3]; K. pneumoniae KB390 Quale, TEM-30, TEM-1, KPC-2, SHV-12, read-out: MIC): 2 mg/L (≈ 2.91 µM)
- MIC ([3]; K. pneumoniae LC40, CTX-M-1 grp(15), TEM (164S), read-out: MIC): 16 mg/L (≈ 23.3 µM)
- MIC ([3]; K. pneumoniae LC56, CTX-M-1 grp(15), read-out: MIC): 0.5 mg/L (≈ 0.728 µM)
- MIC ([3]; K. pneumoniae LC102, SHV-1 (WT + 238S), read-out: MIC): 1 mg/L
- MIC ([3]; K. pneumoniae LC121, SHV-1 (WT + 238S + 240K), read-out: MIC): 4 mg/L
- MIC ([3]; K. pneumoniae Rush23, CTX-M-9 group, read-out: MIC): 2 mg/L (≈ 2.91 µM)
- MIC ([3]; K. pneumoniae VA-368, KPC-2, TEM-1, SHV-5, SHV-68): 0.25 mg/L (≈ 0.364 µM)
- MIC ([3]; K. pneumoniae VA-384, KPC-2, TEM-1, SHV-11, SHV-12, SHV-14): 8 mg/L (≈ 11.7 µM)
- MIC ([3]; K. pneumoniae VA-398, KPC-3, TEM-1, SHV-11, SHV-12, SHV-27): 8 mg/L (≈ 11.7 µM)
